Literature values in US12569628B2, “Delivery of medicinal gas in a liquid medium” (Third Pole, Inc., priority 2022, dated 2026).
Read-outs that look alike come from different tables or passages of the source.

What was measured:
immune system = conditions: low concentrations

Compound: [N]=O [NO, nitric oxide]
- Henry's law constant kH (NO in alcohol): approximately 6.65×10^−5 mol/m^3 Pa
- Henry's law constant kH (NO in water): 1.9×10^−5 mol/m^3 Pa
- concentration at which NO stimulates the immune system (immune system): 10^−12 to 10^−9 M
